Reference: patent US20030104079A1, “Skin tissue regeneration promoters comprising ginsenoside Rb1” (Japan Science and Technology Corporation, Japan, priority 2000, published 2003)
“Also recorded” adds a separate entry of the source.

Tested on: open wound of rat skin
Test: Open wound healing by external or topical application to skin (propet ointment)
Assay type: in vivo, rats
Excerpt: For that purpose, for example, by using Wistar male rats (body weight about 300 g), the punch biopsies with diameter 6 mm were made in the dorsal region of animals after shaving under inhalation anesthesia to prepare 3 regions of open wound. Among them, 0.1 g of ophthalmic white Vaseline (Propet) containing 0.01% by weight or 0.001% by weight of ginsenoside Rb1 was spread once for every day in two regions, and in the remaining open wound, the equal amount of ophthalmic white Vaseline (propet) was spread. Nine days after preparing open wound, the skin including wound regions was photographed. Further, we have examined the effects of external or topical cutaneous spread of 0.0001% by weight, 0.00001% by weight or 0.000001% by weight of ginsenoside Rb1 by the same procedure. Experimental animals were euthanized by anesthetia immediately before photographing, then wound regions were dissected out after photographing or after dissecting out wound regions, photographing was performed. Thereafter, the wound region tissues were stored in the fixative. FIG. 5 and FIG. 6 are photographs in place of drawings.
The punch biopsy with diameter 6 mm was performed in the dorsal 6 regions of each animal under inhalation anesthesia to prepare open wound. Thereafter, 0.1 g of propet (ophthalmic white vaseline) containing ginsenoside Rb1 at the concentrations of 0.0001% by weight (10^−4% by weight), 0.00001% by weight (10^−5% by weight), 0.000001% by weight (10^−6% by weight), 0.0000001% by weight (10^−7% by weight) and 0.00000001% by weight (10^−8% by weight), respectively, was applied externally, once a day, for 9 days on each open wound. The equal amount of propet alone was applied externally or topically in the control animals. Then, immediately after euthanasia by anesthetization, the skin containing the open wound was dissected out and photographed. The collected skin tissue was preserved in a fixative. FIG. 12 is a photograph in place of drawing.
In each case, there are three wounds on the left side and three wounds on the right side, totally 6 marks of open wounds.
In the experimental cases hereinbefore explained, an area of open wound (flair region) applied externally only with propet is set as a denominator and an area of open wound administered externally with ginsenoside Rb1 at concentrations from 10^−4% by weight to 10^−8% by weight is set as a numerator, and ratio thereof is calculated. In FIG. 13, n=3 and single asterisk (*) indicates significant difference, P<0.05, and two asterisks (**) indicate significant difference, P<0.01. Statistical test was performed according to Scheffe's post hoc test.
Details of dihydroginsenoside Rb1 is described in the specification of PCT/JP00/04102 (Brain cell or nerve cell protecting agents comprising ginseng). The punch biopsy with diameter 6 mm was performed at 5 places in the dorsal region of rats (n=4) under inhalation anesthesia to prepare open wound. Thereafter, 0.1 g of propet containing dihydroginsenoside Rb1 at concentrations of 0.0001% by weight (10^−4% by weight), 0.00001% by weight (10^−5% by weight), 0.000001% by weight (10^−6% by weight) and 0.0000001% by weight (10^−7% by weight), respectively, was applied topically or externally, once a day, for 9 days onto each open wound. The equal amount of propet alone was applied externally or topically in the control animals. Then, immediately after euthanasia by anesthetization, the skin containing the open wound was dissected out and photographed. The collected skin tissue was preserved in a fixative. FIG. 14 is a photograph in place of drawing. In FIG. 14, four cases are shown, and from the upper column, the first case, the second case, the third case and the fourth case are shown.

In the case of `CC(C)=CCC[C@](C)(O[C@@H]1O[C@H](CO[C@@H]2O[C@H](CO)[C@@H](O)[C@H](O)[C@H]2O)[C@@H](O)[C@H](O)[C@H]1O)[C@H]1CC[C@]2(C)[C@@H]1[C@H](O)C[C@@H]1[C@@]3(C)CC[C@H](O[C@@H]4O[C@H](CO)[C@@H](O)[C@H](O)[C@H]4O[C@@H]4O[C@H](CO)[C@@H](O)[C@H](O)[C@H]4O)C(C)(C)[C@@H]3CC[C@]12C` [ginsenoside Rb1], the “open wound reduction (FIG. 13)” value (0.0000001% by weight (10^−7% by weight) or less, i.e. 1 ng/g or less) is reported as “reduced significantly the open wound”, the “ratio of open wound area to propet alone (FIG. 13)” value (10^−4% to 10^−8% by weight, n=3, Scheffe's post hoc test) is reported as “wound healing was significantly promoted” and the “area of the open wound relative to control” value (concentrations around 10^−8% by weight) is reported as “about ¼”. For the same compound, the “growing hair in regions of wound healing (FIG. 12)” value (external administration of the low concentrations of ginsenoside Rb1) was “growing hair was obviously observed”, the “hair restoration or hair growth from regenerated open wound” value (extracutaneous administration of 0.000001% by weight) was “obvious hair restoration or hair growth” and the “area of open wound region relative to control” value (ginsenoside Rb1 at 0.0001%, 0.00001%, 0.000001%, 0.0000001% or 0.00000001% by weight) was “½-¼”. The “volume of the open wound relative to control” value (low concentrations, worked out from the area reduction) was “about ⅛”, the “effectiveness on open wound (FIG. 6)” value (propet containing 0.00001% or 0.000001% by weight, compared with 0.0001% by weight) was “superior effectiveness as compared with propet containing 0.0001% by weight” and the “open wound area vs propet alone (FIG. 5)” value (propet containing 0.001% by weight, 0.1 g once every day, day 9) was “slightly reduced”. The “open wound vs propet alone control (FIG. 5)” value (propet containing 0.01% by weight, 0.1 g once every day, day 9) was “trivial; also recorded: no difference” and the “wound healing vs propet alone (FIG. 12)” value (propet containing 10^−6% to 10^−8% by weight (10 ng/g to 100 pg/g), once a day for 9 days) was “wound healing was obviously promoted”.
